Consider nine compounds from patent US8084471B2, “Proteomimetic compounds as inhibitors of the interaction of nuclear receptor with coactivator peptides” (Yale University, priority 2006, dated 2011).

Ends that are not written are not given here.

In test [1] the target is T1, ERα (Homo sapiens, UniProt P03372).
T1 sequence (P03372 1-595): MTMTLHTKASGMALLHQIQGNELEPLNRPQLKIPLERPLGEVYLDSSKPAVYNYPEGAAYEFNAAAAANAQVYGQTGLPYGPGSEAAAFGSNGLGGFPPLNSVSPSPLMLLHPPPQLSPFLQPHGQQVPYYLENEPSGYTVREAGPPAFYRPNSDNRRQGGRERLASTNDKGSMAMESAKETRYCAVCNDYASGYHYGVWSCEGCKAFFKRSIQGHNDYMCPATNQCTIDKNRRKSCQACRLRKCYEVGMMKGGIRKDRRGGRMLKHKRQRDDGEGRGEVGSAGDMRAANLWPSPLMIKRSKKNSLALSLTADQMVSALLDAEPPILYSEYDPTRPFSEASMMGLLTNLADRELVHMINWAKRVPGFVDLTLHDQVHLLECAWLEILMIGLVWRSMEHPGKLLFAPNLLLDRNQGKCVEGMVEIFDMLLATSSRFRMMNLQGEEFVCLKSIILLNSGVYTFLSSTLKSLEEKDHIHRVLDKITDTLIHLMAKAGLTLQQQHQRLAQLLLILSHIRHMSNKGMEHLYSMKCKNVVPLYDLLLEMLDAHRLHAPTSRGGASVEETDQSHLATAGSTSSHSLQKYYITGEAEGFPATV
The test is described as follows: Fluorescence polarization assay: displacement of rhodamine-labeled peptide D22 from estradiol-activated ER. The test is classed as binding. Details: purchased Invitrogen. The conditions noted are these: for fluorescence polarization titration curve: FIG. 2; for Ki: ERα 75 nM, 17β-estradiol 2 μM, D22 1 nM; for affinity (in words): FP assay.

Test [2] addresses T1, ERα. Details: purchased Invitrogen. Particulars: used to obtain Ki from IC50; D22 at 1 nM; read-out: Kd of the fluorescent peptide; cited from earlier work.
The target of test [3] is T1, ERα. The test is described as follows: Competitive radioligand assay with [3H]estradiol for the estradiol binding site. Details: purchased MDS Pharma Services (contract assay); host or cells: Sf9 insect cells. The conditions noted are these: ERα from human recombinant insect Sf9 cells. The method, then: Inhibition of coactivator binding by a small molecule involves either direct competition with the helical peptide for the ER surface or binding of the small molecule to the ligand binding site as an antagonist, deactivating the ER and preventing coactivator recruitment. To rule out the latter mechanism, a competitive radioligand assay with [^3H]estradiol was carried out to specifically measure the affinity of 3 for the estradiol binding site. According to the radioligand assay, 3 binds to this site with an affinity <0.001% the affinity of 17β-estradiol. […] From this it was concluded that the helix mimetics prevent the coactivator association through direct competition for its binding site on the ER surface. […]
Procedure: Ammonium sulfate precipitates of the hER were dissolved in TDEE buffer containing 100 mM KCl, 0.5 mM leupeptin, and 10% glycerol. […] The hER was incubated with a varied concentration of [^3H]estradiol, and the nonspecific binding was measured by a parallel incubation with [^3H]estradiol plus a 300-fold excess of estradiol for 15 h at 4° C. At the completion of the incubation, 50 μL of each mixture was removed and the total [^3H]estradiol concentration determined. […] The hydroxylapatite pellets were suspended in 1 mL of ethanol and counted in 5 mL of scintillation fluid, and the receptor-bound [^3H]estradiol was measured. […]

One may read the Ki as a dissociation constant, usually derived from enzyme kinetics or from competition with a known ligand. Read a low Ki as a stronger hold on the target. Turning to `CC(C)Cc1cc(-c2c(CC(C)C)cc(O)c(=O)n2CC(C)C)ccn1` [Compound 1, 3-Hydroxy-1,5-diisobutyl-6-(2-isobutyl-4-pyridyl)-1H-pyridin-2-one], the “fluorescence polarization titration curve” value on ERα [1] is recorded as “slopes rapidly downward”. Moreover, the Ki at ERα [1] (Table 1 left column) was determined as 34 µM. At ERα [1] (relative to compound 2), this compound gave a decrease in affinity of 2 fold.

As a reminder, the Kd is the equilibrium constant for the complex coming apart. Take “Rho-LPYEGSLLLKLLRAPVEEV-COOH [Compound D22, rhodamine-labeled peptide which contains a single LXXLL motif, FP probe]”: the equilibrium dissociation constant (Kd) at ERα [2] was 0.031 µM.

Compound `CC(C)Cc1cc(-c2c(CC(C)C)cc(O)c(=O)n2CCc2ccccc2)ccn1` [Compound 3, 3-Hydroxy-5-isobutyl-6-(2-isobutyl-4-pyridyl)-1-(2-phenylethyl)-1H-pyridin-2-one] yielded a Ki on ERα [1] (standard deviation in brackets) of 9.4 µM. The “affinity for the estradiol binding site relative to 17β-estradiol” value at ERα [3] is reported as less than 0.001%.

`CC(C)Cc1cc(O)c(=O)n(CCc2ccc3ccccc3c2)c1-c1ccnc(Cc2ccccc2)c1` [Compound 7, 6-(2-Benzyl-4-pyridyl)-3-hydroxy-5-isobutyl-1-(2-(2-naphthyl)ethyl)-1H-pyridin-2-one]: the inhibitory constant (Ki) at ERα [1] (standard deviation in brackets) was determined as 4.2 µM. This lies in the single-digit micromolar range.

“CLTERHKILHRLLQE [SRC-1 NR II, CLTERHKILHRLLQE, reference compound]”: the inhibitory constant (Ki) stood at 0.95 µM at ERα [1] (standard deviation in brackets) and 1 µM at ERα [1] (Table 1 left column).

`CC(C)Cc1cc(-c2c(CC(C)C)cc(O)c(=O)n2CCC(C)(C)C)ccn1` [Compound 4, 3-hydroxy-5-isobutyl-6-(2-isobutyl-4-pyridyl)-1-(3,3-dimethylbutyl)1H-pyridin-2-one] gave a Ki at ERα [1] (standard deviation in brackets) greater than 50 µM. For the same compound, the “affinity (in words)” value on ERα [1] was “weak affinity”.

The compound `CC(C)CCn1c(-c2ccnc(CC(C)C)c2)c(CC(C)C)cc(O)c1=O` [Compound 2, 3-Hydroxy-5-isobutyl-6-(2-isobutyl-4-pyridyl)-1-(3-methylbutyl)-1H-pyridin-2-one] registered a Ki at ERα [1] (standard deviation in brackets) of 16 µM.

On ERα [1] (standard deviation in brackets), `CC(C)Cc1cc(O)c(=O)n(CCc2ccccc2)c1-c1ccnc(Cc2ccccc2)c1` [Compound 6, 6-(2-Benzyl-4-pyridyl)-3-hydroxy-5-isobutyl-1-(2-phenylethyl)-1H-pyridin-2-one] displayed a Ki of 6.5 µM.

The compound `CC(C)Cc1cc(O)c(=O)n(CCC(C)(C)C)c1-c1ccnc(C(C)(C)C)c1` [Compound 5, 6-(2-tert-Butyl-4-pyridyl)-3-hydroxy-5-isobutyl-1-(3,3-dimethylbutyl)1H-pyridin-2-one] showed an inhibitory constant (Ki) on ERα [1] (standard deviation in brackets) greater than 50 µM. Moreover, at ERα [1], the “fluorescence polarization titration curve” value is given as “about 0.95” and the “affinity (in words)” value was “weak affinity”.
